Experimental data reported in patent publication US10982284B2, “Compositions and methods APC, CREB, and BAD pathways to assess and affect cancer” (H. Lee Moffitt Cancer Center and Research Institute, Inc., priority 2011, dated 2021).

What was measured:
Test in all cases: CellTiter-Blue cell viability assay
Assay type in all cases: cell-based, human
[1] = tested on: CAOV2; conditions: CAOV2 ovarian cancer cell line, 72 hours, 50% reduction in growth/viability
Description: (§1) Ovarian cancer cell lines were obtained from the American Type Culture Collection (Manassas, Va.) (CAOV3, OV90, OVCAR3, SKOV3, TO[…]); from the European Collection of Cell Cultures, Salisbury, UK (A2780CP, A2780S); or from Kyoto University, Kyoto, Japan ([…], Tyknu, and TyknuC is R) or were kind gifts from Dr. Patricia Kruk, Department of Pathology, College of Medicine, University of South Florida, Tampa, Fla., and Susan Murphy, PhD, Dept of OBGYN/Division of GYN Oncology, Duke University, Durham, N.C. […] Cell lines were maintained in RPMI-1640 (Invitrogen, Carlsbad, Calif.) supplemented with 10% fetal bovine serum (Fisher Scientific, Pittsburgh, Pa.), 1% sodium pyruvate, 1% penicillin/streptomycin (Cellgro, Manassas, Va.), and 1% nonessential amino acids (HyClone, Hudson, N.H.). Mycoplasma testing was performed every 6 months following manufacturer's protocol (Lonza, Rockland, Me.). Drug activity was evaluated using a high-throughput CellTiter-Blue cell viability assay. […] After cell adherence, increasing concentrations of cisplatin, carboplatin (Sigma-Aldrich, St. Louis, Mo.), paclitaxel (Sequoia Research Products Ltd., Pangbourne, UK), or carboplatin plus paclitaxel (carbotaxol: constant molar ratio of carboplatin to paclitaxel of 20,000:1) were added to appropriate wells using an automated pipetting station. Four replicate wells were used for each drug concentration and vehicle controls. […] The cells were incubated with the drug for 72 hours, and 5 μL of CellTiter-Blue reagent (Promega Corp) was added to each well. Fluorescence was read at […] using a Synergy 4 microplate reader (Bio-Tek Instruments, Inc., Winooski, Vt.).

[2] = tested on: CAOV3; conditions: CAOV3 ovarian cancer cell line, 72 hours, 50% reduction in growth/viability
Description: as §1

[3] = tested on: CHI; conditions: CHI ovarian cancer cell line, 72 hours, 50% reduction in growth/viability
Description: as §1

[4] = tested on: IGR-OV1; conditions: IGR-OV1 ovarian cancer cell line, 72 hours, 50% reduction in growth/viability
Description: as §1

[5] = tested on: M41; conditions: M41 ovarian cancer cell line, 72 hours, 50% reduction in growth/viability
Description: as §1

[6] = tested on: MCAS; conditions: MCAS ovarian cancer cell line, 72 hours, 50% reduction in growth/viability
Description: as §1

[7] = tested on: OV90; conditions: OV90 ovarian cancer cell line, 72 hours, 50% reduction in growth/viability
Description: as §1

[8] = tested on: OVCA429; conditions: OVCA429 ovarian cancer cell line, 72 hours, 50% reduction in growth/viability
Description: as §1

[9] = tested on: OVCA433; conditions: OVCA433 ovarian cancer cell line, 72 hours, 50% reduction in growth/viability
Description: as §1

[10] = tested on: OVCAR10; conditions: OVCAR10 ovarian cancer cell line, 72 hours, 50% reduction in growth/viability
Description: as §1

[11] = tested on: OVCAR3; conditions: OVCAR3 ovarian cancer cell line, 72 hours, 50% reduction in growth/viability
Description: as §1

[12] = tested on: SK-OV-4; conditions: SK-OV-4 ovarian cancer cell line, 72 hours, 50% reduction in growth/viability
Description: as §1

[13] = tested on: TOV112D; conditions: TOV112D ovarian cancer cell line, 72 hours, 50% reduction in growth/viability
Description: as §1

[14] = tested on: TyknuCisR; conditions: TyknuCisR ovarian cancer cell line, 72 hours, 50% reduction in growth/viability
Description: as §1

[15] = tested on: FUOV1; conditions: FUOV1 ovarian cancer cell line, 72 hours, 50% reduction in growth/viability
Description: Ovarian cancer cell lines were obtained from the American Type Culture Collection (Manassas, Va.) (CAOV3, OV90, OVCAR3, SKOV3, TOV112D); from the European Collection of Cell Cultures, Salisbury, UK (A2780CP, A2780S); or from Kyoto University, Kyoto, Japan (CHI, CHIcisR, M41, M41CSR, Tyknu, and TyknuC is R) or were kind gifts from Dr. Patricia Kruk, Department of Pathology, College of Medicine, University of South Florida, Tampa, Fla., and Susan Murphy, PhD, Dept of OBGYN/Division of GYN Oncology, Duke University, Durham, N.C. (A2008, C13, CAOV2, FUOV1, HeyA8, IGR-OV1, IMCC3, IMCC5, MCAS, OV2008, OVCA420, OVCA429, OVCA432, OVCA433, OVCAR4, OVCAR5, OVCAR8, Dov13, BG1, Ovary1847, OVCAR10, OVCAR2, SK-OV-4).
Cell lines were maintained in RPMI-1640 (Invitrogen, Carlsbad, Calif.) supplemented with 10% fetal bovine serum (Fisher Scientific, Pittsburgh, Pa.), 1% sodium pyruvate, 1% penicillin/streptomycin (Cellgro, Manassas, Va.), and 1% nonessential amino acids (HyClone, Hudson, N.H.). […]
Drug activity was evaluated using a high-throughput CellTiter-Blue cell viability assay. […] Fluorescence was read at […] using a Synergy 4 microplate reader (Bio-Tek Instruments, Inc., Winooski, Vt.). IC50 results were determined using a sigmoidal equilibrium model fit (XLfit 5.2, ID Business Solutions Ltd.). […]

Question: Which IC50 [1] does the source give for `N.N.O=C([O-])C1(C(=O)[O-])CCC1.[Pt+2]` [Carboplatin, carboplatin] here?
Answer: 70.2 µM

Question: And the IC50 [2]?
Answer: 69.4 µM

Question: And the IC50 [3]?
Answer: 23.6 µM

Question: What about the IC50 [4] of the same molecule?
Answer: 65.4 µM

Question: What about the IC50 [5] of the same molecule?
Answer: 41.6 µM

Question: What about the IC50 [6] of the same molecule?
Answer: 237 µM

Question: What about the IC50 [7] of the same molecule?
Answer: 213 µM

Question: What about the IC50 [8] of the same molecule?
Answer: 225 µM

Question: What about the IC50 [9] of the same molecule?
Answer: 270 µM

Question: What about the IC50 [10] of the same molecule?
Answer: 128 µM

Question: What about the IC50 [11] of the same molecule?
Answer: 83.7 µM

Question: And the IC50 [12]?
Answer: 23 µM

Question: And the IC50 [13]?
Answer: 75.8 µM

Question: And the IC50 [14]?
Answer: 63.7 µM

Question: And the IC50 [15]?
Answer: 87.9 µM

Question: Which IC50 ([1]; Homo sapiens) does the source give for `CC(=O)O[C@H]1C(=O)[C@@]2(C)[C@H]([C@H](OC(=O)c3ccccc3)[C@]3(O)C[C@H](OC(=O)[C@H](O)[C@@H](NC(=O)c4ccccc4)c4ccccc4)C(C)=C1C3(C)C)[C@]1(OC(C)=O)CO[C@@H]1C[C@@H]2O` [Paclitaxel, paclitaxel] here?
Answer: 0.0204 µM

Question: What about the IC50 ([2]; Homo sapiens, Caov-3) of the same molecule?
Answer: 0.0046 µM

Question: And the IC50 ([3]; Homo sapiens)?
Answer: 0.000999 µM

Question: And the IC50 ([4]; Homo sapiens, IGROV-1)?
Answer: 0.0374 µM

Question: And the IC50 ([5]; Homo sapiens)?
Answer: 0.0063 µM

Question: What about the IC50 ([6]; Homo sapiens) of the same molecule?
Answer: 0.0029 µM

Question: What about the IC50 ([7]; Homo sapiens, OV-90) of the same molecule?
Answer: 0.108 µM

Question: What about the IC50 ([8]; Homo sapiens) of the same molecule?
Answer: 0.0029 µM

Question: What about the IC50 ([9]; Homo sapiens) of the same molecule?
Answer: 0.0021 µM

Question: What about the IC50 ([10]; Homo sapiens) of the same molecule?
Answer: 0.0071 µM

Question: And the IC50 ([11]; Homo sapiens, OVCAR-3)?
Answer: 0.0169 µM

Question: And the IC50 ([12]; Homo sapiens)?
Answer: 0.0023 µM

Question: And the IC50 ([13]; Homo sapiens)?
Answer: 0.111 µM

Question: What about the IC50 ([14]; Homo sapiens) of the same molecule?
Answer: 0.0072 µM

Question: And the IC50 ([15]; Homo sapiens)?
Answer: 4.4 µM
